TGI data for 14 compounds are collected here from PubChem BioAssay (NCI).

Broadly, the TGI is the concentration giving total growth inhibition.

Holding throughout (assay): DTP human tumour cell line panel, 48 h
The test system of assay [1] is 786-0 renal.
Assay [2] concerns BT-549 breast.
The subject of assay [3] is CAKI-1 renal.
Assay [4] relates to HCT-116 colon.
The test system of assay [5] is HCT-15 colon.
Assay [6] relates to HOP-92 NSCLC.
Assay [7] deals with HT29 colon.
The subject of assay [8] is LOX IMVI melanoma.
Assay [9] deals with MDA-MB-435.
In assay [10] the test system is MOLT-4 leukemia.
Assay [11] concerns NCI/ADR-RES ovarian.
Assay [12] concerns OVCAR-4 ovarian.
The subject of assay [13] is PC-3 prostate.
Assay [14] concerns SF-268 CNS.
Assay [15] deals with SK-MEL-28 melanoma.
Assay [16] concerns SK-OV-3 ovarian.
The test system of assay [17] is SNB-19 CNS.
Assay [18] has as its system UACC-62 melanoma.
Assay [19] relates to UO-31 renal.
In assay [20] the test system is NCI-H460 lung.

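Where inhibition never reached the appropriate level, the endpoint shown equals the highest concentration tested. Otherwise, values were interpolated linearly from a five-concentration, 48-hour dose response in 96-well plates. The concentration for full growth arrest is given as TGI.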 A value given as a limit tells only on which side of the number the result lay.

In the case of `CC1(C)OC(=O)CC12CCN(Cc1ccccc1)CC2`, the TGI in assay [1], in [2], in assay [3], in assay [4], in assay [5] and in [6] was greater than 100 µM in each case. Also, the TGI in assay [7], in [8], in assay [9], in assay [10], in [11] and in [12] was greater than 100 µM in each case. Moreover, the total growth inhibition concentration (TGI) in assay [13], in assay [14], in [15], in [16], in assay [17] and in assay [18] was greater than 100 µM each time. For the same compound, the TGI in assay [19] is greater than 100 µM.
As for `COc1cc(C2S/C(=C/c3ccccc3)C(=O)N2c2ccc([N+](=O)[O-])cc2)cc(OC)c1OC` (stereo unspecified), the total growth inhibition concentration (TGI) in assay [1], in [2], in assay [3], in [4], in assay [5] and in assay [6] was greater than 100 µM in each case. The TGI in assay [7], in assay [8], in assay [9], in assay [10], in assay [20] and in assay [11] was greater than 100 µM throughout. The TGI in assay [12], in assay [13], in [14], in assay [15], in assay [16] and in assay [17] was greater than 100 µM in each case. The TGI in assay [18] and in assay [19] was greater than 100 µM in each case.
In the case of `O=C(/C=C/c1ccccc1)CCC1C(=O)NC(=O)NC1=O`, the TGI in assay [1], in assay [2], in assay [3], in [4], in assay [5] and in assay [6] was greater than 100 µM in each case. For the same compound, the TGI in assay [7], in [8], in assay [9], in [10], in assay [20] and in assay [11] was greater than 100 µM in each case. For the same compound, the TGI in [12], in [13], in assay [14], in [15], in assay [16] and in assay [17] was greater than 100 µM in each case. In addition, the TGI in [18] and in assay [19] was greater than 100 µM in each case.
Turning to `CC(CCC(=O)O)[C@H]1CCC2[C@H]3C(CC(=O)[C@@]21C)[C@@]1(C)CCC(O)C[C@H]1C[C@@H]3O` (stereo partly specified), the TGI in [1], in assay [2], in [3], in assay [4], in assay [5] and in [6] was greater than 100 µM in each case. Further, the TGI in [7], in assay [8], in assay [9], in [10], in assay [20] and in [11] was greater than 100 µM throughout. Moreover, the TGI in assay [12], in assay [13], in assay [14], in assay [15], in [17] and in assay [18] was greater than 100 µM each time. For the same compound, the TGI in [19] is greater than 100 µM.
For the compound `CC(C)(CCCCC(C)(C)NCC1COc2ccccc2O1)NCC1COc2ccccc2O1` (stereo unspecified), the TGI in assay [1] was greater than 10 µM; in assay [2], greater than 10 µM; in assay [3] it was greater than 10 µM; in assay [4] it was greater than 10 µM; in assay [5], greater than 10 µM; in assay [6] it was 7.43 µM. In addition, the TGI in [7] is 7.08 µM; in assay [8], greater than 10 µM; in assay [9] it was 3.6 µM; in assay [10] it was greater than 10 µM; in assay [20] it was greater than 10 µM; in [11], greater than 10 µM. Besides, the TGI was greater than 10 µM in [12]; greater than 10 µM in [13]; greater than 10 µM in assay [14]; 3.66 µM in [15]; greater than 10 µM in assay [16]; greater than 10 µM in [17]. In addition, the TGI in assay [18] was 9.93 µM.
For the compound `COC(=O)C(Cc1c[nH]c2ccccc12)NP(=O)(O)OCC1OC(n2cc(F)c(=O)[nH]c2=O)CC1O` (stereo unspecified), the TGI in [1], in assay [2], in assay [4], in assay [5], in assay [6] and in assay [7] was greater than 100 µM throughout. Moreover, the TGI in [8], in [9], in assay [10], in assay [20], in assay [11] and in assay [12] was greater than 100 µM each time. The TGI in assay [13], in [14], in assay [15], in assay [16], in [17] and in assay [18] was greater than 100 µM in each case. The compound also came in with a TGI in assay [19] greater than 100 µM.
For the compound `COc1ccc(NC(C)=O)cc1N1C(=O)/C(=C\c2cc(OC)c(OC)c(OC)c2)S(=O)(=O)C1c1ccccc1` (stereo unspecified), the TGI in assay [1], in [2], in assay [3], in [4], in assay [5] and in [6] was greater than 100 µM each time. The TGI in [7], in [8], in assay [9], in assay [10], in assay [20] and in assay [11] was greater than 100 µM in each case. The TGI in [12], in assay [13], in assay [15], in assay [16], in assay [17] and in assay [18] was greater than 100 µM in each case. The TGI in [19] was greater than 100 µM.
As to `C(/C=N/NC1=NCCCN1)=N\NC1=NCCCN1`, the TGI in assay [1], in assay [2], in [3], in assay [4], in assay [6] and in [7] was greater than 100 µM in each case. The TGI in assay [8], in [9], in assay [10], in assay [20], in assay [11] and in assay [12] was greater than 100 µM throughout. In addition, the TGI in assay [13], in assay [14], in assay [15], in [16], in assay [17] and in assay [18] was greater than 100 µM in each case. Also, the TGI in assay [19] is greater than 100 µM.
As for `COC(=O)[C@]12CSC[C@H]1C[C@H](c1ccc(N(C)C)cc1)N2`, the TGI in assay [1], in [2], in assay [3], in assay [4], in [5] and in [6] was greater than 100 µM throughout. Moreover, the TGI in assay [8], in [9], in assay [10], in assay [20], in [11] and in assay [12] was greater than 100 µM each time. The TGI in assay [13], in assay [14], in [15], in [16], in assay [17] and in assay [18] was greater than 100 µM in each case. In assay [19], the TGI was greater than 100 µM.
For `COc1c(O)cc2c(c1O)C1O[C@H](CO)C(O)[C@H](O)[C@H]1OC2=O` (stereo partly specified), the concentration for total growth inhibition (TGI) in [1], in assay [2], in assay [3], in assay [4], in assay [5] and in assay [6] was greater than 100 µM in each case. For the same compound, the TGI in assay [7], in assay [8], in assay [9], in [10], in assay [20] and in assay [11] was greater than 100 µM in each case. Further, the TGI in [12], in assay [13], in [14], in [15], in [16] and in assay [17] was greater than 100 µM throughout.
As to `O=c1[nH]c(=O)n(C2CC(O)C(CO)O2)c2nc3ccc4ccccc4c3nc12` (stereo unspecified), the TGI in assay [1], in assay [2], in assay [3], in [4], in assay [5] and in assay [6] was greater than 100 µM in each case. Besides, the TGI in [8] was greater than 100 µM; in assay [9], greater than 100 µM; in assay [10], 54.3 µM; in assay [20], greater than 100 µM; in assay [11], greater than 100 µM; in [12], greater than 100 µM. Besides, the total growth inhibition concentration (TGI) in assay [13], in assay [14], in assay [15], in [16], in [17] and in [18] was greater than 100 µM in each case. Moreover, the TGI in assay [19] is greater than 100 µM.
Regarding `NC(=O)NC(=O)c1ccc(NC(=O)CBr)cc1`, the TGI in assay [1] turned out to be 0.919 µM; in assay [2] it was 4.7 µM; in assay [3] it was 1.52 µM; in [4], 2.29 µM; in [5] it was 4.56 µM; in assay [6] it was 4.59 µM. Further, the TGI in assay [7] stood at 3.42 µM; in assay [8] it was 2.26 µM; in [9], 3.06 µM; in [10], 2.61 µM; in [20], 9.74 µM; in assay [11] it was 7.53 µM. Further, the TGI is 4.39 µM in assay [13]; 3.09 µM in assay [14]; 13.1 µM in [15]; 9.49 µM in assay [16]; greater than 49.8 µM in assay [17]; 4.03 µM in assay [18]. This compound also displayed a concentration for total growth inhibition (TGI) in assay [19] of 2.78 µM.
`O=c1[nH]c2ccsc2c(=O)n1COCc1ccccc1`: the TGI in assay [1], in assay [2], in assay [3], in assay [4], in assay [5] and in [6] was greater than 100 µM each time. The TGI in [7], in [8], in assay [9], in assay [10], in assay [20] and in assay [11] was greater than 100 µM throughout. In addition, the TGI in assay [12], in assay [13], in assay [14], in assay [15], in assay [17] and in assay [19] was greater than 100 µM in each case.
Turning to `COC(=O)/C(C#N)=C(\Nc1ccccc1)N1CCCCC1`, the concentration for total growth inhibition (TGI) in [1], in assay [2], in assay [3], in assay [4], in assay [5] and in assay [6] was greater than 100 µM in each case. Further, the TGI in assay [7], in assay [8], in assay [9], in assay [10], in assay [20] and in assay [11] was greater than 100 µM throughout. Besides, the TGI in [12], in assay [13], in [14], in assay [15], in assay [16] and in assay [17] was greater than 100 µM throughout. The compound further showed a TGI in assay [19] greater than 100 µM.
